21 compounds from US10899753B2, “Inhibiting agents for Bruton's tyrosine kinase” (BIOGEN MA INC., priority 2018, dated 2021) can be followed below.

Assay [1] addresses T1, BTK (Homo sapiens (Human), UniProt Q06187). Kind of assay: In Vitro PD Assay in Human Whole Blood (pBTK assay). Format: cell-based. The note with it: human heparinized whole blood, 37° C. for 30 min, total BTK capture and phosphotyrosine detection (ECL). On the procedure:
In Vitro PD Assay in Human Whole Blood
Human heparinized venous blood was purchased from Bioreclamation, Inc. or SeraCare Life Sciences and shipped overnight. Whole blood was aliquoted into 96-well plate and “spiked” with serial dilutions of test compound in DMSO or with DMSO without drug. The final concentration of DMSO in all wells was 0.1%. The plate was incubated at 37° C. for 30 min. Lysis buffer containing protease and phosphatase inhibitors was added to the drug-containing samples and one of the DMSO-only samples (+PPi, high control), while lysis buffer containing protease inhibitors was added to the other DMSO-only samples (−PPi, low control). All of the lysed whole blood samples were subjected to the total BTK capture and phosphotyrosine detection method described in US20160311802, incorporated herein by reference.

For assay [2], the target named is T1, BTK. Kind of assay: In Vitro BTK Kinase Assay: BTK-POLYGAT-LS ASSAY. The class given is biochemical. The note with it: fluorescein-labeled polyGAT peptide 100 nM, BTK enzyme 0.25 nM, 30 minutes, TRF. Here is the method:
In Vitro BTK Kinase Assay: BTK-POLYGAT-LS ASSAY
The purpose of the BTK in vitro assay is to determine compound potency against BTK through the measurement of IC50. […] For a typical assay, a […] aliquot of a ATP/peptide master mix (final concentration; ATP […], polyGAT 100 nM) in kinase buffer (10 mM Tris-HCl pH 7.5, 10 mM MgCl2, 200 μM Na3PO4, 5 mM DTT, 0.01% Triton X-100, and 0.2 mg/ml casein) is added to each well. […] The assay is incubated for 30 minutes before being stopped with 28 μL of a 50 mM EDTA solution. […] The plate is covered and incubated for 45 minutes at room temperature. Time resolved fluorescence (TRF) on Molecular Devices M5 (332 nm excitation; 488 nm emission; 518 nm fluorescein emission) is measured.

T1 sequence (Q06187 whole entry): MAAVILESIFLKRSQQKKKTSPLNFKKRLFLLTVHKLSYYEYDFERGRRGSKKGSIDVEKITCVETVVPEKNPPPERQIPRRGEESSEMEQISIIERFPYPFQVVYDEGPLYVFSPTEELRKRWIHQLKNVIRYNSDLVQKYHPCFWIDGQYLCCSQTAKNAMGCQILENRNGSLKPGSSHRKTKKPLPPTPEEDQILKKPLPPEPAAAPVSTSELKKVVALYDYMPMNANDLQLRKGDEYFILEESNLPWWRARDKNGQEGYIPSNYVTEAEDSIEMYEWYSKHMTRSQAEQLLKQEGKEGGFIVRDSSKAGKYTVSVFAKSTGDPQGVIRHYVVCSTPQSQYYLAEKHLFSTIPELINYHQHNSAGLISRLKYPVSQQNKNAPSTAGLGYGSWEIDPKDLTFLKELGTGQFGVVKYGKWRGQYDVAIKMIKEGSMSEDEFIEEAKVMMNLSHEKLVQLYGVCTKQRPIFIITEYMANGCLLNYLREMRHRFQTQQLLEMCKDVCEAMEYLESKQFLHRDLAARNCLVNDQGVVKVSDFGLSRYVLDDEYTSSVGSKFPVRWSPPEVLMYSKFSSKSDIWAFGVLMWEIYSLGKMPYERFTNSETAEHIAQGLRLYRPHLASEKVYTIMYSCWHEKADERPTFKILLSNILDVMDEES

As to `Cc1cc(-c2ncnc(Nc3cnn(C)c3)n2)c(F)cc1CNC(=O)c1cc(C(C)(C)C)on1` [Compound 64, 5-(tert-butyl)-N-(5-fluoro-2-methyl-4-(4-((1-methyl-1H-pyrazol-4-yl)amino)-1,3,5-triazin-2-yl)benzyl)isoxazole-3-carboxamide], the IC50 (in general, the concentration needed to halve the response being measured) at BTK [1] is 500 to 10000 nM; on BTK [2] it was under 1 nM.
On to `Cn1ccc(Nc2ncnc(-c3ccc(CNC(=O)c4nc(C(C)(C)C)no4)c(C4CC4)c3F)n2)n1` [Compound 55, 3-(tert-butyl)-N-(2-cyclopropyl-3-fluoro-4-(4-((1-methyl-1H-pyrazol-3-yl)amino)-1,3,5-triazin-2-yl)benzyl)-1,2,4-oxadiazole-5-carboxamide], for which the IC50 was 500 to 10000 nM against BTK [1] and under 1 nM on BTK [2].
For `Cn1ccc(Nc2ncnc(-c3ccc(CNC(=O)c4noc(C5(C)CC5)n4)c(Cl)c3F)n2)n1` [Compound 104, N-(2-chloro-3-fluoro-4-(4-((1-methyl-1H-pyrazol-3-yl)amino)-1,3,5-triazin-2-yl)benzyl)-5-(1-methylcyclopropyl)-1,2,4-oxadiazole-3-carboxamide] the same measures were 500 to 10000 nM and under 1 nM.
Consider `Cc1cc(-c2ncnc(Nc3cnn(C)c3)n2)ccc1CNC(=O)c1nc(C2(CF)CC2)no1` [Compound 48, 3-(1-(fluoromethyl)cyclopropyl)-N-(2-methyl-4-(4-((1-methyl-1H-pyrazol-4-yl)amino)-1,3,5-triazin-2-yl)benzyl)-1,2,4-oxadiazole-5-carboxamide], for which the IC50 at BTK [1] is 100 to 500 nM; on BTK [2], under 1 nM.
For `Cc1c(CNC(=O)c2cnn(C(C)(C)C)c2)ccc(-c2ncnc(Nc3cnn(C)c3)n2)c1F` [Compound 36, 1-(tert-butyl)-N-(3-fluoro-2-methyl-4-(4-((1-methyl-1H-pyrazol-4-yl)amino)-1,3,5-triazin-2-yl)benzyl)-1H-pyrazole-4-carboxamide] the same measures were 100 to 500 nM and under 1 nM.
For `Cc1c([C@@H](C)NC(=O)c2noc(C(C)(C)C)n2)ccc(-c2ncnc(Nc3cnn(C)c3)n2)c1F` [Compound 73, (R)-5-(tert-butyl)-N-(1-(3-fluoro-2-methyl-4-(4-((1-methyl-1H-pyrazol-4-yl)amino)-1,3,5-triazin-2-yl)phenyl)ethyl)-1,2,4-oxadiazole-3-carboxamide] the same measures were under 100 nM and under 1 nM.
For `Cn1ccc(Nc2ncnc(-c3cc4c(cc3F)[C@H](NC(=O)c3noc(C(C)(C)C)n3)CCCC4)n2)n1` [Compound 84, (R)-5-(tert-butyl)-N-(3-fluoro-2-(4-((1-methyl-1H-pyrazol-3-yl)amino)-1,3,5-triazin-2-yl)-6,7,8,9-tetrahydro-5H-benzo[7]annulen-5-yl)-1,2,4-oxadiazole-3-carboxamide] the same measures were 100 to 500 nM and under 1 nM.
For the compound `Cc1c(CNC(=O)c2ccn(C(C)(C)C)n2)ccc(-c2ncnc(Nc3cnn(C)c3)n2)c1F` [Compound 106, 1-(tert-butyl)-N-(3-fluoro-2-methyl-4-(4-((1-methyl-1H-pyrazol-4-yl)amino)-1,3,5-triazin-2-yl)benzyl)-1H-pyrazole-3-carboxamide], the IC50 on BTK [1] is 500 to 10000 nM; against BTK [2], under 1 nM.
For `Cc1cc(-c2ncnc(Nc3cnn(C)c3)n2)c(F)cc1CNC(=O)c1noc(C2(C)CC2)n1` [Compound 59, N-(5-fluoro-2-methyl-4-(4-((1-methyl-1H-pyrazol-4-yl)amino)-1,3,5-triazin-2-yl)benzyl)-5-(1-methylcyclopropyl)-1,2,4-oxadiazole-3-carboxamide] the same measures were 100 to 500 nM and under 1 nM.
For `C[C@@H](NC(=O)c1noc(C(C)(C)C)n1)c1ccc(-c2ncnc(Nc3ccn(C)n3)n2)c(F)c1C(F)F` [Compound 82, (R)-5-(tert-butyl)-N-(1-(2-(difluoromethyl)-3-fluoro-4-(4-((1-methyl-1H-pyrazol-3-yl)amino)-1,3,5-triazin-2-yl)phenyl)ethyl)-1,2,4-oxadiazole-3-carboxamide] the same measures were 500 to 10000 nM and 1 to 10 nM.
For `Cn1cc(Nc2ncnc(-c3cc4c(cc3F)[C@H](NC(=O)c3noc(C(C)(C)C)n3)CCCC4)n2)cn1` [Compound 86, (R)-5-(tert-butyl)-N-(3-fluoro-2-(4-((1-methyl-1H-pyrazol-4-yl)amino)-1,3,5-triazin-2-yl)-6,7,8,9-tetrahydro-5H-benzo[7]annulen-5-yl)-1,2,4-oxadiazole-3-carboxamide] the same measures were under 100 nM and under 1 nM.
Consider `Cn1ccc(Nc2ncnc(-c3ccc(CNC(=O)c4noc(C(C)(C)C)n4)c(Cl)c3)n2)n1` [Compound 5, 5-(tert-butyl)-N-(2-chloro-4-(4-((1-methyl-1H-pyrazol-3-yl)amino)-1,3,5-triazin-2-yl)benzyl)-1,2,4-oxadiazole-3-carboxamide], for which the IC50 at BTK [1] was 500 to 10000 nM; against BTK [2] it was 1 to 10 nM.
For `Cn1ccc(Nc2ncnc(-c3ccc(CNC(=O)c4noc(C(C)(C)C)n4)c(Cl)c3F)n2)n1` [Compound 21, 5-(tert-butyl)-N-(2-chloro-3-fluoro-4-(4-((1-methyl-1H-pyrazol-3-yl)amino)-1,3,5-triazin-2-yl)benzyl)-1,2,4-oxadiazole-3-carboxamide] the same measures were 100 to 500 nM and under 1 nM.
For `Cc1cc(-c2ncnc(Nc3ccn(C)n3)n2)ccc1CNC(=O)c1nn(C(C)(C)C)cc1F` [Compound 4, 1-(tert-butyl)-4-fluoro-N-(2-methyl-4-(4-((1-methyl-1H-pyrazol-3-yl)amino)-1,3,5-triazin-2-yl)benzyl)-1H-pyrazole-3-carboxamide] the same measures were over 10000 nM and 1 to 10 nM.
For `Cc1c(-c2ncnc(Nc3cnn(C)c3)n2)ccc([C@@H](C)NC(=O)c2noc(C(C)(C)C)n2)c1Cl` [Compound 77, (R)-5-(tert-butyl)-N-(1-(2-chloro-3-methyl-4-(4-((1-methyl-1H-pyrazol-4-yl)amino)-1,3,5-triazin-2-yl)phenyl)ethyl)-1,2,4-oxadiazole-3-carboxamide] the same measures were 100 to 500 nM and under 1 nM.
For the compound `Cc1c([C@@H](C)NC(=O)c2nc(C(C)(C)C)no2)ccc(-c2ncnc(Nc3ccn(C)n3)n2)c1F` [Compound 72, (R)-3-(tert-butyl)-N-(1-(3-fluoro-2-methyl-4-(4-((1-methyl-1H-pyrazol-3-yl)amino)-1,3,5-triazin-2-yl)phenyl)ethyl)-1,2,4-oxadiazole-5-carboxamide], the values for the IC50 against BTK [1] and on BTK [2] were 100 to 500 nM and under 1 nM, respectively.
For `Cc1c(CNC(=O)c2nc(C(C)(C)C)no2)ccc(-c2ncnc(Nc3cnn(C)c3)n2)c1F` [Compound 14, 3-(tert-butyl)-N-(3-fluoro-2-methyl-4-(4-((1-methyl-1H-pyrazol-4-yl)amino)-1,3,5-triazin-2-yl)benzyl)-1,2,4-oxadiazole-5-carboxamide] the same measures were under 100 nM and under 1 nM.
For `Cc1c([C@@H](C)NC(=O)c2nc(C(C)(C)C)no2)ccc(-c2ncnc(Nc3cnn(C)c3)n2)c1Cl` [Compound 80, (R)-3-(tert-butyl)-N-(1-(3-chloro-2-methyl-4-(4-((1-methyl-1H-pyrazol-4-yl)amino)-1,3,5-triazin-2-yl)phenyl)ethyl)-1,2,4-oxadiazole-5-carboxamide] the same measures were 100 to 500 nM and under 1 nM.
For `Cn1ccc(Nc2ncnc(-c3ccc(CNC(=O)c4noc(C(C)(C)CF)n4)c(C4CC4)c3)n2)n1` [Compound 54, N-(2-cyclopropyl-4-(4-((1-methyl-1H-pyrazol-3-yl)amino)-1,3,5-triazin-2-yl)benzyl)-5-(1-fluoro-2-methylpropan-2-yl)-1,2,4-oxadiazole-3-carboxamide] the same measures were 100 to 500 nM and under 1 nM.
On to `C[C@@H](NC(=O)c1noc(C(C)(C)C)n1)c1ccc(-c2ncnc(Nc3ccn(C)n3)n2)c(F)c1Cl` [Compound 101, (R)-5-(tert-butyl)-N-(1-(2-chloro-3-fluoro-4-(4-((1-methyl-1H-pyrazol-3-yl)amino)-1,3,5-triazin-2-yl)phenyl)ethyl)-1,2,4-oxadiazole-3-carboxamide], for which the results for the IC50 at BTK [1] and against BTK [2] were 500 to 10000 nM and under 1 nM, respectively.
For `Cc1c(-c2ncnc(Nc3ccn(C)n3)n2)ccc([C@@H](C)NC(=O)c2noc(C(C)(C)C)n2)c1Cl` [Compound 79, (R)-5-(tert-butyl)-N-(1-(2-chloro-3-methyl-4-(4-((1-methyl-1H-pyrazol-3-yl)amino)-1,3,5-triazin-2-yl)phenyl)ethyl)-1,2,4-oxadiazole-3-carboxamide] the same measures were 500 to 10000 nM and 1 to 10 nM.
